Measured values from patent publication US9789111B2, “Casein kinase 1δ (CK 1δ) inhibitors” (Electrophoretics Limited, priority 2010, dated 2017).

What was measured:
CK1g2 = CK1g2 (Homo sapiens, UniProt P78368); assay: kinase inhibition assay panel; format: biochemical
CLK2 = CLK2 (Homo sapiens, UniProt P49760); assay: kinase inhibition assay panel; format: biochemical
FGFR1 = FGFR1 (Homo sapiens, UniProt P11362); assay: kinase inhibition assay panel; format: biochemical
CK1δ = biological target: T1, CK1δ (Homo sapiens, UniProt P48730); assay: CK1δ inhibition assay (33P-ATP, CK1tide substrate); format: biochemical; conditions: range of kinase inhibition assays
T1 construct: Recombinant human full-length construct; GST; host or cells: insect cells
T1 sequence (P48730 1-409 isoform P48730-2): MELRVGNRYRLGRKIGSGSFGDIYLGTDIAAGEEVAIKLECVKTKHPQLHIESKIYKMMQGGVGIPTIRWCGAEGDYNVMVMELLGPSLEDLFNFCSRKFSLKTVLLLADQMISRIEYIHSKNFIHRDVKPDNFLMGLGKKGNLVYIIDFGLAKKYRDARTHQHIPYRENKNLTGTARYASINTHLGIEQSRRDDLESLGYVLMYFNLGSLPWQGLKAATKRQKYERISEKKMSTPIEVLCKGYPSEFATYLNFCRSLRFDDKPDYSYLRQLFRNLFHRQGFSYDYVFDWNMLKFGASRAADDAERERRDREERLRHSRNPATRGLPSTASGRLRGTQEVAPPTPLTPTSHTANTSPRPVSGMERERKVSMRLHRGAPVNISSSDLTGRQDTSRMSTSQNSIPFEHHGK
Experimental: The compounds of the invention may be tested for inhibition of casein kinase 1 delta (CK1δ) in accordance with the assay protocols described in US 2010/0152157, EP 1,636,375 or Hanger et al (2007) J. Biol. Chem. 282, 23645-23654. In particular, the assay was conducted in accordance with the following protocol:
(§1) Base Reaction buffer; 20 mM Hepes (pH 7.5), 10 mM MgCl2, 1 mM EGTA, 0.02% Brij35, 0.02 mg/ml BSA, 0.1 mM Na3VO4, 2 mM DTT, 1% DMSO
(§2) It should be noted that required cofactors are added individually to each kinase reaction.
(§3) • 1. Prepare indicated substrate in freshly prepared Base Reaction Buffer as described above • 2. Deliver any required cofactors to the substrate solution • 3. Deliver indicated kinase into the substrate solution and gently mix • 4. Deliver compounds in DMSO into the kinase reaction mixture • 5. Deliver ^33P-ATP (specific activity 0.01 μCi/μl final) into the reaction mixture to initiate the reaction • 6. Incubate kinase reaction for 120 min. at room temperature • 7. Reactions are spotted onto P81 ion exchange paper (Whatman #3698-915) • 8. Wash filters extensively in 0.75% Phosphoric acid Kinase Information: • CK1δ—Genbank Accession # NP_620693 • Recombinant human full-length construct. GST-tagged, expressed in insect cells. • Final concentration in assay=4 nM • Substrate: CK1tide • Substrate sequence: [KRRRAL[pS]VASLPGL] • Final substrate concentration in assay=20 μM • It should be noted that no additional cofactors are added to the reaction mixture.

PIM3 = PIM3 (Homo sapiens, UniProt Q86V86); assay: kinase inhibition assay panel; format: biochemical
Experimental: as §1, §2, §3

c-SRC = c-SRC (Homo sapiens, UniProt P12931); assay: kinase inhibition assay panel; format: biochemical
Experimental: as §1, §2, §3

PKCb2 = PKCb2 (Homo sapiens, UniProt P05771); assay: kinase inhibition assay panel; format: biochemical
Experimental: as §1, §2, §3

ROCK1 = ROCK1 (Homo sapiens, UniProt Q13464); assay: kinase inhibition assay panel; format: biochemical
Experimental: as §1, §2, §3

HGK/MAP4K4 = HGK/MAP4K4 (Homo sapiens, UniProt O95819); assay: kinase inhibition assay panel; format: biochemical
Experimental: as §1, §2, §3

PKCa = PKCa (Homo sapiens, UniProt P17252); assay: kinase inhibition assay panel; format: biochemical
Experimental: as §1, §2, §3

LCK = LCK (Homo sapiens, UniProt P06239); assay: kinase inhibition assay panel; format: biochemical
Experimental: as §1, §2, §3

CDK5/p25 = CDK5/p25 (Homo sapiens, UniProt Q00535); assay: kinase inhibition assay panel; format: biochemical
Experimental: as §1, §2, §3

KDR/VEGFR2 = KDR/VEGFR2 (Homo sapiens, UniProt P35968); assay: kinase inhibition assay panel; format: biochemical
Experimental: as §1, §2, §3

ABL2/ARG = ABL2/ARG (Homo sapiens, UniProt P42684); assay: kinase inhibition assay panel; format: biochemical
Experimental: as §1, §2, §3

GSK3b = GSK3b (Homo sapiens, UniProt P49841); assay: kinase inhibition assay panel; format: biochemical
Experimental: as §1, §2, §3

MSK1/RPS6KA5 = MSK1/RPS6KA5 (Homo sapiens, UniProt O75582); assay: kinase inhibition assay panel; format: biochemical
Experimental: as §1, §2, §3

PDK1/PDPK1 = biological target: T2, PDK1/PDPK1 (Homo sapiens, UniProt O15530); assay: kinase inhibition assay panel; format: biochemical
T2 sequence (O15530 1-556): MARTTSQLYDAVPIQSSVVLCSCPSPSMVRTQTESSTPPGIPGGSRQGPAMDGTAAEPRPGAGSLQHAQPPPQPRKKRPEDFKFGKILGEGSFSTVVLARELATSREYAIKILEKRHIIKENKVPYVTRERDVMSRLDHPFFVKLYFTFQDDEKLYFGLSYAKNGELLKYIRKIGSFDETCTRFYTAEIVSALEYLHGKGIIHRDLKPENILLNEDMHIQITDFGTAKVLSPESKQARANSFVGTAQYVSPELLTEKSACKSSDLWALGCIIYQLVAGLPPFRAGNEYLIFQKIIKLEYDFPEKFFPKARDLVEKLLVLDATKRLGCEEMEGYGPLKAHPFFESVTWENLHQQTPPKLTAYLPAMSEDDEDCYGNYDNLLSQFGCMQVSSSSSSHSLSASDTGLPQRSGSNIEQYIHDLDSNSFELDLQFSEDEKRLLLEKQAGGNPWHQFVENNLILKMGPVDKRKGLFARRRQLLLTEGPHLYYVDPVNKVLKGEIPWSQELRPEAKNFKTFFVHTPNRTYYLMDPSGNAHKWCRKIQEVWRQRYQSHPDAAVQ
Experimental: as §1, §2, §3

CK1g1 = CK1g1 (Homo sapiens, UniProt Q9HCP0); assay: kinase inhibition assay panel; format: biochemical
[1] = tested on: Tau phosphorylation at key pathogenic sites in SH-SY5Y-TMHT cells; conditions: SH-SY5Y-TMHT cells exposed to kinase inhibitors; cited from earlier work
SH-SY5Y-TMHT cells = assay: Cell viability, MTT assay; format: cell-based, human; conditions: 0.5 μM (tested 0.1 μM to 1 μM), 6 h of treatment
Experimental: (§4) SH-SY5Y-TMHT cells are kept in culture medium (DMEM medium, 10% FCS, 1% NEAA, 1% L-Glutamine, 100 μg/ml Gentamycin, 300 μg/ml Geneticin G-418) for 2 days until 80-90% confluency. Cells are then differentiated in culture medium supplemented with 10 μM retinoic acid (RA) for 7 days changing medium every 2 to 3 days. Differentiated cells are seeded onto 6-well plates and 96-well plates at a cell density of 1.25×10^6 and 8×10^5 cells per well, respectively. On day 8 post-differentiation, the test compounds, reference compounds and vehicle control were added to the culture medium. After 6 h of compound exposure one plate of cells is subjected to a MTT assay to evaluate the effect of test and reference items on cell viability. Remaining wells are washed once with cold PBS and harvested in 300 μl RIPA-Buffer [50 mM Tris pH 7.4, 1% Nonident P40, 0.25% Na-deoxy-cholate, 150 mM NaCl, 1 mM EDTA, 1 μM NaF, 1 μM Na-ortho-vanadate, 80 mM Glycerophosphate, supplemented with freshly added protease (Calbiochem) and phosphatase (Sigma) inhibitor cocktail]. The cell suspension is transferred into a 1.5 ml tube and additionally lysed by sonication on ice. An aliquot of 20 μl is taken for the determination of the protein concentration (BCA assay). Subsequently, the lysates are snap frozen and stored at −80° C. until shipment.
To determine compound activity, it is necessary to control for potential cell toxicity of all molecules. Viability of cultures is determined by the MTT assay. This assay allows the measurement of the mitochondrial dehydrogenase activity which reduces yellow MTT to dark blue formazan crystals. Since this reaction is catalyzed in living cells only this assay is used for the determination of cell viability. MTT solution is added to each well in a final concentration of 0.5 mg/ml. After 2 hours, the MTT containing medium is aspired. Cells are lysed in 3% SDS and the formazan crystals are dissolved in isopropanol/HCl. Optical density is measured with a plate-reader at wavelength 570 nm. Cell survival rate is expressed as optical density (OD). Values are calculated as percent of control values.
Cell viability was determined in differentiated SH-SY5Y-TMHT cells by the MTT assay. Test and reference compounds were applied in a concentration range from 0.05 μM to 10 μM and from 0.1 μM to 1 μM, respectively. Upon 6 h of treatment, cell viability was evaluated. […] Statistical significance is indicated by *<0.05, **<0.01, ***<0.001 as determined by One-Way ANOVA. Data are shown from two independent experiments as group mean+/−SEM (n=8). […] Statistical significance is indicated by *<0.05, **<0.01, ***<0.001 as determined by One-Way ANOVA. […] Statistical significance is indicated by *<0.05, **<0.01, ***<0.001 as determined by One-Way ANOVA. […]

[2] = tested on: total Tau in SH-SY5Y-TMHT cells; assay: Western Blot of total Tau; format: cell-based, human; conditions: 5 μM
Experimental: as §4
(§5) Lysates of treated cells were prepared in Laemmli buffer and 10 μg loaded into each lane of a 10% Nu-PAGE gel (Invitrogen, UK). Samples were run until the coomassie blue dye fromt was within 1 cm of the bottom of the gel. The separated proteins were transferred onto nitrocellulose and blots developed using antibodies specific for total tau (Polyclonal Rabbit Anti-Human Tau, Dako, UK (cat # A0024)) and phopho-Threonine 231 (Tau (Phospho-Thr231) Antibody, Signalway Antibody, USA (cat # 11110)) respectively. In each case the bound antibody was detected using ECL Rabbit IgG, HRP-Linked (from donkey) (GE Healthcare, UK (cat # NA934))

[3] = tested on: Tau phosphorylated at Threonine 231 in SH-SY5Y-TMHT cells; assay: Western Blot of Tau phosphorylated at Threonine 231; format: cell-based, human; conditions: 5 μM, Western Blot
Experimental: as §4, §5

Sequence of c-SRC (P12931 whole entry, species assumed): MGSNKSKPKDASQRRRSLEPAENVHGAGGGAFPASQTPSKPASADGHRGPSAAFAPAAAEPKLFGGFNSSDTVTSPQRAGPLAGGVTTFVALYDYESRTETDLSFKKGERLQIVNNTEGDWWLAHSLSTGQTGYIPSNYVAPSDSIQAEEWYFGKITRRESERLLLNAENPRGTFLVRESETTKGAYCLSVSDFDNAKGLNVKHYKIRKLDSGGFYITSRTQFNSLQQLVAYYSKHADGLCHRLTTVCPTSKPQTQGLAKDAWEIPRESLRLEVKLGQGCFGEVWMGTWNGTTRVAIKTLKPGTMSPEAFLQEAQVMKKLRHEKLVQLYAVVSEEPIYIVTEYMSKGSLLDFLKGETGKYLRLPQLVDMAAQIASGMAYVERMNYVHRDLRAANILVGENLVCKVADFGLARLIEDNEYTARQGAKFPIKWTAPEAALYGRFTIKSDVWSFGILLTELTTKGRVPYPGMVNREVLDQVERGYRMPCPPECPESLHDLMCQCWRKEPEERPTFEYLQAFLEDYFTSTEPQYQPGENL
Sequence of KDR/VEGFR2 (P35968 20-1356): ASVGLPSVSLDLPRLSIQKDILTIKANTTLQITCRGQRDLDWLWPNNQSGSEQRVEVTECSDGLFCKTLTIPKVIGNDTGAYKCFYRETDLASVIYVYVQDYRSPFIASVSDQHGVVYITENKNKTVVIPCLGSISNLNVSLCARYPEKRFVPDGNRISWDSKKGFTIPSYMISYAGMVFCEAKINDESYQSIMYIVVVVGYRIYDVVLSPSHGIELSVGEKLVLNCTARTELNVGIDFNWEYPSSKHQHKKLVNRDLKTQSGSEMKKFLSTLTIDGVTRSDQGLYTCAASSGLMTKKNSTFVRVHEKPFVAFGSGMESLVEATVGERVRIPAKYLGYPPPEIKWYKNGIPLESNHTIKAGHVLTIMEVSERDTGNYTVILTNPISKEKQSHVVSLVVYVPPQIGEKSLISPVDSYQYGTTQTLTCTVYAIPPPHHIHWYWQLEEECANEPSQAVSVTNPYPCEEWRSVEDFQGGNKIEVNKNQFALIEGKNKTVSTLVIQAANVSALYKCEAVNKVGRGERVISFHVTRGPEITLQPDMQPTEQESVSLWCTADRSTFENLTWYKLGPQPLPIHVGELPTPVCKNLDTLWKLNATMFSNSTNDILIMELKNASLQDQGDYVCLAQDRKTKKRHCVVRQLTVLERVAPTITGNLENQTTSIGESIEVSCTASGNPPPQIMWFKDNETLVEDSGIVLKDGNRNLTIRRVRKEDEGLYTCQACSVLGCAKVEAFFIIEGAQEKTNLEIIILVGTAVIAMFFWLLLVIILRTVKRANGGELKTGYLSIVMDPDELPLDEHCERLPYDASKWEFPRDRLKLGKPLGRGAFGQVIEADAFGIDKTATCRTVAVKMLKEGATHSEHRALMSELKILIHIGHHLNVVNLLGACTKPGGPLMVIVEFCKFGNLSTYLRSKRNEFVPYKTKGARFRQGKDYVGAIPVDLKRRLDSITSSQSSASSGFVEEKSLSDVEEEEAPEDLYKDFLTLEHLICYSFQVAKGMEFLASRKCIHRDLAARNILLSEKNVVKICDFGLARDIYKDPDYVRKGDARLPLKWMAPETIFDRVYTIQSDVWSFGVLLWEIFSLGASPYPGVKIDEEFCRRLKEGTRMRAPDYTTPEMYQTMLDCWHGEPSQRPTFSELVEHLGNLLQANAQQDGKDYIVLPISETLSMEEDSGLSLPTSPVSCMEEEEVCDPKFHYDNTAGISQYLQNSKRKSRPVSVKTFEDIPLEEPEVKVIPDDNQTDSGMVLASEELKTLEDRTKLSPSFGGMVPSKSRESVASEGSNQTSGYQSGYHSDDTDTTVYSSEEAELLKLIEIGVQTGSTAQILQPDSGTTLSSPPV
Sequence of CK1g2 (P78368 whole entry, species assumed): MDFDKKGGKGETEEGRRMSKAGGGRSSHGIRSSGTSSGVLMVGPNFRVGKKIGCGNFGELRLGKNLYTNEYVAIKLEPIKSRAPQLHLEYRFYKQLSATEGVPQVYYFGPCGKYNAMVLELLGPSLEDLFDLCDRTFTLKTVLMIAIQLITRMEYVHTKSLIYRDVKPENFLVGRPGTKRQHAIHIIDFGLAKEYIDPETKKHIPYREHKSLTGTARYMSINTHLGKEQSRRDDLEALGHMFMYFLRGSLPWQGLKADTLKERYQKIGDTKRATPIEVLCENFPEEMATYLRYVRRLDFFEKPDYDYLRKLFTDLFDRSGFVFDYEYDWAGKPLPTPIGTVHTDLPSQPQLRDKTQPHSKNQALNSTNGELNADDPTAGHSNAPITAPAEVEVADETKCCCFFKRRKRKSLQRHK
Sequence of PKCb2 (P05771 1-673 isoform P05771-2): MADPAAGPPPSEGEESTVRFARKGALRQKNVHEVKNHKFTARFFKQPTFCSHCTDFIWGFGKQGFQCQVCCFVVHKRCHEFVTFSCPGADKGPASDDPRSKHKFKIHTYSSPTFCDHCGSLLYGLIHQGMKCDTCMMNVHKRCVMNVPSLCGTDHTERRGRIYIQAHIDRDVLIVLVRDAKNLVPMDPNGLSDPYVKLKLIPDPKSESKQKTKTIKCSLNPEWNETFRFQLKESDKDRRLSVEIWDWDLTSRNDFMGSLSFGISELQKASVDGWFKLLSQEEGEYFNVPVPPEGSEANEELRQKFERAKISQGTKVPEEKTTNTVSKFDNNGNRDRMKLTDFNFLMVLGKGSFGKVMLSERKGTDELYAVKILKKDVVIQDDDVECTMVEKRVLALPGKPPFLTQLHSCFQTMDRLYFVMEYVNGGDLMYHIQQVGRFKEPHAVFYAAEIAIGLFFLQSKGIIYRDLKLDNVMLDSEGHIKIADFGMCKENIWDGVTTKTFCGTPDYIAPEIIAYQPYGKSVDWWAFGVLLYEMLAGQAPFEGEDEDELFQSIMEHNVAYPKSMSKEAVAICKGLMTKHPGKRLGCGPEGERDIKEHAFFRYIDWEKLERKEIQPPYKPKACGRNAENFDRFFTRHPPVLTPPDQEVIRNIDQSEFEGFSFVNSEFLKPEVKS
Sequence of HGK/MAP4K4 (O95819 whole entry): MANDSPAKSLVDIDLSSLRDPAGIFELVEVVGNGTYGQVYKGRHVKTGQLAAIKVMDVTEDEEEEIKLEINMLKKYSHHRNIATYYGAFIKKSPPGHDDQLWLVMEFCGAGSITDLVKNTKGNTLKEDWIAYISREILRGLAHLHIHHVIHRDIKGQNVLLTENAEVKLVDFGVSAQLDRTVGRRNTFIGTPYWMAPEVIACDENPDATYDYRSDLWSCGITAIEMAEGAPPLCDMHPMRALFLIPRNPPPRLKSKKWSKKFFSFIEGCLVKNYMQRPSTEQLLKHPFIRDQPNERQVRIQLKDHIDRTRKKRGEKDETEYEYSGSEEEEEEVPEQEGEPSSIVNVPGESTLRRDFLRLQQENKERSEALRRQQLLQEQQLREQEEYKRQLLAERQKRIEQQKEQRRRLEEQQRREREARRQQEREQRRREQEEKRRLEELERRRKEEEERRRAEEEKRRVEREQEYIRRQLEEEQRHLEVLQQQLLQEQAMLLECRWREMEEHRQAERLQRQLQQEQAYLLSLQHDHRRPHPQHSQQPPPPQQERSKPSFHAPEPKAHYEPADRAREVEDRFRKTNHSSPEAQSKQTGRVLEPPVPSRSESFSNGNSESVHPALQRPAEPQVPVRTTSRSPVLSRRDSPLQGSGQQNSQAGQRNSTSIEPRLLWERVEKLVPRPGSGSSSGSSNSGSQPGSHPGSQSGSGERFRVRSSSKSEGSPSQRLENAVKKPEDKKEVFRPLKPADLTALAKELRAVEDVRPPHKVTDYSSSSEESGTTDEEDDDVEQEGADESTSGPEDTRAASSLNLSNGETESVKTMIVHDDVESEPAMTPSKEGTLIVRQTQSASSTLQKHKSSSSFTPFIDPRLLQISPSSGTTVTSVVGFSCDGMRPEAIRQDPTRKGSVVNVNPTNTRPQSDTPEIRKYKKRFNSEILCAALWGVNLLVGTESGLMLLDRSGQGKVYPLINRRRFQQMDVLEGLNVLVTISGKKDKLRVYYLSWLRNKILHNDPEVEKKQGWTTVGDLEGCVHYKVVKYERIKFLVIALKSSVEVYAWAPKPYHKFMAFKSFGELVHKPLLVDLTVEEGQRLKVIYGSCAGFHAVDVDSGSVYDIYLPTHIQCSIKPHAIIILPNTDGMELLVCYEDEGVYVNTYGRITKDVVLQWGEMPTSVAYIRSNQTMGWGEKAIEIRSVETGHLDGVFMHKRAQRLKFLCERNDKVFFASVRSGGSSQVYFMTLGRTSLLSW
Sequence of FGFR1 (P11362 22-822, species assumed): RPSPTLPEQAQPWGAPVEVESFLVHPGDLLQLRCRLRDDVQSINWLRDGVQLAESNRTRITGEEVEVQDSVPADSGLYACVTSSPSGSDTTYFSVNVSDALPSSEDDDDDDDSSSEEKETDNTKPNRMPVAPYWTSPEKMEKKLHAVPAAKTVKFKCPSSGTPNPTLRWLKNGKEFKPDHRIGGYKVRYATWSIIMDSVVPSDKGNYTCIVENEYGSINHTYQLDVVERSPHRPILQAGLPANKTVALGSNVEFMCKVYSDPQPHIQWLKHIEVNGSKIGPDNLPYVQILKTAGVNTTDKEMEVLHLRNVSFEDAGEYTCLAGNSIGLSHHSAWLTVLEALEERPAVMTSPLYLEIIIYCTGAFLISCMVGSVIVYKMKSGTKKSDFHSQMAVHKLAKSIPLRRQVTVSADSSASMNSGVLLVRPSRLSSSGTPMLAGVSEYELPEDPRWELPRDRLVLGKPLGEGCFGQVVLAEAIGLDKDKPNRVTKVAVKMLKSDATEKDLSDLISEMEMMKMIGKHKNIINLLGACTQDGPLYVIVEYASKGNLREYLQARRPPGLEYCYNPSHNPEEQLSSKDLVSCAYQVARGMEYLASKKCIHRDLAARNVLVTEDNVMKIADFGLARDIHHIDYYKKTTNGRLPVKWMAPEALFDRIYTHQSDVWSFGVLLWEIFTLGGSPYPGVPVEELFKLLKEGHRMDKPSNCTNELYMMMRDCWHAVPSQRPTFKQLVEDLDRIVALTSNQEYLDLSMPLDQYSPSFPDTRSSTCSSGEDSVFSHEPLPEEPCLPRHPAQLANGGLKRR

SMILES: NC(=O)c1c(N)n(C(=O)c2ccc(F)cc2)c2ccccc12 [Compound 999, 2-amino-1-[(4-fluorophenyl)carbonyl]-1H-indole-3-carboxamide]
- inhibition of CK1g2 (CK1g2): lower than 40%
- inhibition of CLK2 (CLK2): lower than 40%
- inhibition of FGFR1 (FGFR1): lower than 40%
- selectivity for CK1δ when compared with other kinases (CK1δ): significant and selective inhibition for CK1δ
- inhibition of PIM3 (PIM3): lower than 40%
- inhibition of c-SRC (c-SRC): lower than 40%
- inhibition of PKCb2 (PKCb2): lower than 40%
- inhibition of ROCK1 (ROCK1): lower than 40%
- inhibition of HGK/MAP4K4 (HGK/MAP4K4): lower than 40%
- inhibition of PKCa (PKCa): lower than 40%
- inhibition of LCK (LCK): lower than 40%
- inhibition of CDK5/p25 (CDK5/p25): lower than 40%
- inhibition of KDR/VEGFR2 (KDR/VEGFR2): lower than 40%
- inhibition of ABL2/ARG (ABL2/ARG): lower than 40%
- inhibition of GSK3b (GSK3b): lower than 40%
- inhibition of MSK1/RPS6KA5 (MSK1/RPS6KA5): lower than 40%
- inhibition of PDK1/PDPK1 (PDK1/PDPK1): lower than 40%
- inhibition of CK1g1 (CK1g1): lower than 40%

SMILES: COc1cc(OC)c(C=C2C(O)=Nc3ccccc32)c(OC)c1 [IC261]
- levels of Tau phosphorylation at key pathogenic sites [1]: reduced

SMILES: Nc1nccc(-c2c(-c3ccc(F)cc3)ncn2C2CCCCC2)n1 [PF670462, reference compound]
- effect on the cell viability of SH-SY5Y-TMHT cells (SH-SY5Y-TMHT cells): significant protective effect
- detectable levels of total Tau [2]: marginally less total Tau
- detectable level of pT231 in Tau protein [3]: reduced the detectable level of pT231
